These compounds were tested against T1, human PAH with the R408W mutation (Homo sapiens, UniProt P00439, R408W) (assay: Cell Based Phenylalanine Flux Assay). Settings: A375 cells expressing human R408W PAH; 24 hrs compound incubation; 13C-Tyrosine by LC-MS; average where tested multiple times; read-out: AC50.
T1 construct: expressed in transfected cells
T1 sequence (P00439 1-452 R408W): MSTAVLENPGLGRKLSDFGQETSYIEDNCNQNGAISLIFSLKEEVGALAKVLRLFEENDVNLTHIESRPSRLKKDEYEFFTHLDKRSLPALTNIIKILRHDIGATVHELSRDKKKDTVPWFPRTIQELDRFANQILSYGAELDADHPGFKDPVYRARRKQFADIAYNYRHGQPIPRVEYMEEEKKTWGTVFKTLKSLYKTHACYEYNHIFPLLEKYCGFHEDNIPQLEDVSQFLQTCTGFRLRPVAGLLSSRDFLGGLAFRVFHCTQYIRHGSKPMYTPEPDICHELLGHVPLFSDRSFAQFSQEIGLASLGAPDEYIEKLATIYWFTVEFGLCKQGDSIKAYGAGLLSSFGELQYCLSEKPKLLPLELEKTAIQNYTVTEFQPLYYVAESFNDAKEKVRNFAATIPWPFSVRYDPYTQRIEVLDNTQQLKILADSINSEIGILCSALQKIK
Method: Compounds were resuspended in DMSO, and 2-fold serial dilutions were performed to generate a 10-point dose curve. Compounds were added to plated cells in a total volume of 100 µl, and a final DMSO concentration of 0.5%. Each compound was tested in duplicate. Following compound addition, cells were placed in a 5% CO2, 37° C. tissue culture incubator for 24 hrs. After the incubation period, 20 µM sepiapterin and 800 µM 13C9,15N-Phenylalanine were added. After 4 hours, cell media was removed. An aliquot of 10 µl of cell media was combined with 200 µl of extraction buffer (80% acetonitrile/20% H2O) for each well. Determination of ^13C-Tyrosine concentration was assessed by liquid chromatography mass spectrometry.
Where a compound was tested multiple times, the average value of the tests is reported.
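Also: after compound treatment, cells received sepiapterin plus isotope-labelled Phenylalanine for 4 hours, then labelled Tyrosine in the medium was quantified, 10-point 2-fold dilution series run in duplicate.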

SMILES | AC50 [nM]
Cc1ncoc1C(=O)N1CCc2[nH]cnc2[C@H]1c1cc2cccc(C)n2n1 [Example 1148, (S)-(4-methyloxazol-5-yl)(4-(7-methylpyrazolo[1,5-a]pyridin-2-yl)-6,7-dihydro-1H-imidazo[4,5-c]pyridin-5(4H)-yl)methanone] | 500 to 1000
Cc1ncoc1C(=O)N1CCc2[nH]cnc2[C@@H]1c1cc2cccc(C)n2n1 [Example 1149, (R)-(4-methyloxazol-5-yl)(4-(7-methylpyrazolo[1,5-a]pyridin-2-yl)-6,7-dihydro-1H-imidazo[4,5-c]pyridin-5(4H)-yl)methanone] | 1000 to 5000
Cc1cccc2cc([C@@H]3c4nc[nH]c4CCN3C(=O)c3oc(C(C)(C)O)nc3C(F)(F)F)nn12 [Example 1150, (S)-(2-(2-hydroxypropan-2-yl)-4-(trifluoromethyl)oxazol-5-yl)(4-(7-methylpyrazolo[1,5-a]pyridin-2-yl)-6,7-dihydro-1H-imidazo[4,5-c]pyridin-5(4H)-yl)methanone] | < 500
Cc1cccc2cc([C@@H]3c4nc[nH]c4CCN3C(=O)c3oc([C@H](C)O)nc3C(F)F)nn12 [Example 1152, (4-(difluoromethyl)-2-((S)-1-hydroxyethyl)oxazol-5-yl)((S)-4-(7-methylpyrazolo[1,5-a]pyridin-2-yl)-6,7-dihydro-1H-imidazo[4,5-c]pyridin-5(4H)-yl)methanone] | < 500
O=C(c1ocnc1C(F)F)N1CCc2[nH]cnc2[C@H]1c1cc2cccc(C(F)(F)F)n2n1 [Example 1154, (S)-(4-(difluoromethyl)oxazol-5-yl)(4-(7-(trifluoromethyl)pyrazolo[1,5-a]pyridin-2-yl)-6,7-dihydro-1H-imidazo[4,5-c]pyridin-5(4H)-yl)methanone] | < 500
CC(C)(O)c1nc(C(F)F)c(C(=O)N2CCc3[nH]cnc3[C@H]2c2cc3cccc(C(F)(F)F)n3n2)o1 [Example 1156, (S)-(4-(difluoromethyl)-2-(2-hydroxypropan-2-yl)oxazol-5-yl)(4-(7-(trifluoromethyl)pyrazolo[1,5-a]pyridin-2-yl)-6,7-dihydro-1H-imidazo[4,5-c]pyridin-5(4H)-yl)methanone] | < 500
O=C(c1cnco1)N1CCc2[nH]cnc2[C@H]1c1cc2c(C(F)(F)F)cccn2n1 [Example 1158, (S)-oxazol-5-yl(4-(4-(trifluoromethyl)pyrazolo[1,5-a]pyridin-2-yl)-6,7-dihydro-1H-imidazo[4,5-c]pyridin-5(4H)-yl)methanone] | 500 to 1000
CC(C)(F)c1nnc(C(=O)N2CCc3[nH]cnc3[C@@H]2c2cc3cccc(C(F)(F)F)n3n2)o1 [Example 1160, (R)-(5-(2-fluoropropan-2-yl)-1,3,4-oxadiazol-2-yl)(4-(7-(trifluoromethyl)pyrazolo[1,5-a]pyridin-2-yl)-6,7-dihydro-1H-imidazo[4,5-c]pyridin-5(4H)-yl)methanone] | 1000 to 5000
CC(C)(F)c1nnc(C(=O)N2CCc3[nH]cnc3[C@H]2c2cc3cccc(C(F)(F)F)n3n2)o1 [Example 1161, (S)-(5-(2-fluoropropan-2-yl)-1,3,4-oxadiazol-2-yl)(4-(7-(trifluoromethyl)pyrazolo[1,5-a]pyridin-2-yl)-6,7-dihydro-1H-imidazo[4,5-c]pyridin-5(4H)-yl)methanone] | 500 to 1000
Cn1nc(Cl)nc1C(=O)N1CCc2[nH]cnc2[C@H]1c1cc2cccc(C(F)(F)F)n2n1 [Example 1162, (S)-(3-chloro-1-methyl-1H-1,2,4-triazol-5-yl)(4-(7-(trifluoromethyl)pyrazolo[1,5-a]pyridin-2-yl)-6,7-dihydro-1H-imidazo[4,5-c]pyridin-5(4H)-yl)methanone] | < 500
Cc1cccc2cc([C@H]3c4nc[nH]c4CCN3C(=O)c3oc([C@@H](C)O)nc3C(F)F)nn12 [Example 1165, (4-(difluoromethyl)-2-((R)-1-hydroxyethyl)oxazol-5-yl)((R)-4-(7-methylpyrazolo[1,5-a]pyridin-2-yl)-6,7-dihydro-1H-imidazo[4,5-c]pyridin-5(4H)-yl)methanone] | 1000 to 5000

Next, values leading:

AC50 [nM] | SMILES
500 to 1000 | COc1cccn2nc([C@@H]3c4nc[nH]c4CCN3C(=O)c3cnco3)cc12 [Example 1166, (S)-(4-(4-methoxypyrazolo[1,5-a]pyridin-2-yl)-6,7-dihydro-1H-imidazo[4,5-c]pyridin-5(4H)-yl)(oxazol-5-yl)methanone]
500 to 1000 | COc1cccn2nc([C@@H]3c4nc[nH]c4CCN3C(=O)c3nnc(C4CC4)o3)cc12 [Example 1168, (S)-(5-cyclopropyl-1,3,4-oxadiazol-2-yl)(4-(4-methoxypyrazolo[1,5-a]pyridin-2-yl)-6,7-dihydro-1H-imidazo[4,5-c]pyridin-5(4H)-yl)methanone]
> 5000 | COc1cccn2nc([C@H]3c4nc[nH]c4CCN3C(=O)c3nnc(C4CC4)o3)cc12 [Example 1169, (R)-(5-cyclopropyl-1,3,4-oxadiazol-2-yl)(4-(4-methoxypyrazolo[1,5-a]pyridin-2-yl)6,7-dihydro-1H-imidazo[4,5-c]pyridin-5(4H)-yl)methanone]
500 to 1000 | Cc1ccc2cc([C@@H]3c4nc[nH]c4CCN3C(=O)c3nnc(C(C)(C)F)o3)nn2c1 [Example 1171, (S)-(5-(2-fluoropropan-2-yl)-1,3,4-oxadiazol-2-yl)(4-(6-methylpyrazolo[1,5-a]pyridin-2-yl)-6,7-dihydro-1H-imidazo[4,5-c]pyridin-5(4H)-yl)methanone]
< 500 | O=C(c1ocnc1C(F)(F)F)N1CCc2[nH]cnc2[C@H]1c1cc2cccc(Cl)n2n1 [Example 1172, (S)-(4-(7-chloropyrazolo[1,5-a]pyridin-2-yl)-6,7-dihydro-1H-imidazo[4,5-c]pyridin-5(4H)-yl)(4-(trifluoromethyl)oxazol-5-yl)methanone]
500 to 1000 | Cc1ncoc1C(=O)N1CCc2[nH]cnc2[C@H]1c1cc2cccc(Cl)n2n1 [Example 1174, (S)-(4-(7-chloropyrazolo[1,5-a]pyridin-2-yl)-6,7-dihydro-1H-imidazo[4,5-c]pyridin-5(4H)-yl)(4-methyloxazol-5-yl)methanone]
< 500 | O=C(c1ocnc1C(F)(F)F)N1CCc2[nH]cnc2[C@H]1c1cc2cccc(C(F)(F)F)n2n1 [Example 1176, (S)-(4-(trifluoromethyl)oxazol-5-yl)(4-(7-(trifluoromethyl)pyrazolo[1,5-a]pyridin-2-yl)-6,7-dihydro-1H-imidazo[4,5-c]pyridin-5(4H)-yl)methanone]
< 500 | CC(C)(O)c1nc(C(F)(F)F)c(C(=O)N2CCc3[nH]cnc3[C@H]2c2cc3cccc(C(F)(F)F)n3n2)o1 [Example 1178, (S)-(2-(2-hydroxypropan-2-yl)-4-(trifluoromethyl)oxazol-5-yl)(4-(7-(trifluoromethyl)pyrazolo[1,5-a]pyridin-2-yl)-6,7-dihydro-1H-imidazo[4,5-c]pyridin-5(4H)-yl)methanone]
500 to 1000 | C[C@@H](O)c1nc(C(F)F)c(C(=O)N2CCc3[nH]cnc3[C@H]2c2cc3cccc(C(F)(F)F)n3n2)o1 [Example 1180, (4-(difluoromethyl)-2-((R)-1-hydroxyethyl)oxazol-5-yl)((S)4-(7-(trifluoromethyl)pyrazolo[1,5-a]pyridin-2-yl)-6,7-dihydro-1H-imidazo[4,5-c]pyridin-5(4H)-yl)methanone]

Reference: patent US20230365592A1 (Agios Pharmaceuticals, Inc., priority 2022, published 2023)
